Experimental data reported in paper PMC10812785, “Structures, Interactions and Activity of the N-Terminal Truncated Variants of Antimicrobial Peptide Thanatin” (Antibiotics, 2024).
Where two headings read alike, the source gives them in different places. Bridge positions count the residues as written; N and C are the ends. Ends that are not written are not given here.

Key:
[1] = test system: Acenobacter baumannii ATCC BAA-1798; format: cell-based, A. baumannii
From the text: (§1) Chemically synthesized PM15, PM15Y and PM15A peptides were obtained from GLBiochem^TM (Shanghai, China). Molecular weight of the peptides was confirmed by mass spectrometry. Bacterial strains were obtained from the American Type Culture Collection (ATCC, Manassas, VA, USA). Mueller–Hinton (MH) broth was purchased from Sigma-Aldrich^TM (Saint Louis, MO, USA) and Millipore-Sigma^TM (Saint Louis, MO, USA). 1-N-phenylnaphthylamine (NPN) and LPS (E. coli O111:B4) were purchased from Sigma Aldrich^TM.
Bacterial growth inhibition of PM15, PM15A and PM15Y peptides was estimated against a panel of bacterial strains, namely, E. coli ATCC25922, S. enterica ATCC 14028, K. pneumoniae ATCC 13883, A. baumannii ATCC BAA-1798, S. pyogenes ATCC 19615 and E. faecalis ATCC 29212, by using the broth dilution assay determining minimum inhibitory concentration (MIC). Typically, overnight bacterial cultures were grown to mid-log phase at 37 °C and then diluted in Mueller–Hinton (MH) broth to OD600 ~ 0.002. […] Bacterial inhibition was determined by absorbance of 96-well plates at OD600 nm by using a Cytation spectrophotometer (Agilent, Santa Clara, CA, USA). The minimum peptide concentration showing complete inhibition of bacterial growth was determined as the MIC value.

E. coli cells = experiment: Zeta potential of E. coli cells (surface charge neutralization); format: cell-based; conditions: 10 mM sodium phosphate buffer, pH 7; peptide 2-32 μM; three replicates of 100 runs; Figure 1A
Experimental: All zeta potential measurements were performed on a Zeta Sizer Nano ZS (Malvern Instruments, Worcestershire, UK) equipped with a 633 nm He laser using zeta cells with gold electrodes. Typically, E. coli cells at a mid-log culture in LB media were harvested by centrifugation at 5000 rpm for 10 min and resuspended in 10 mM sodium phosphate buffer, pH 7. Zeta potential value of the bacterial cell suspension was determined for the free cells and with subsequent additions of peptide (2 μM to 32 μM). For each concentration, 100 runs were carried out and three replicates were executed.

[2] = ITC of peptide/LPS binding; parameters: species or system E. coli; conditions: 10 mM sodium phosphate, pH 7.0, 37 °C
From the text: as §1
(§2) ITC experiments were conducted by using a MicroCal ITC 200 calorimeter. Samples, LPS and peptides, were prepared in 10 mM sodium phosphate buffer, pH 7.0. LPS (50 µM) was placed in the sample cell, while the syringe contained 1 mM of peptide. In an individual experiment, 2.0 μL of peptide was titrated, with a total of 20 titrations, into the sample cell containing LPS at 37 °C with stirring speed adjusted to 750 rpm. For ITCs of peptides/LptAm, samples were prepared in 50 mM sodium phosphate buffer, 150 mM NaCl, pH 7.0. 25 μM of LptAm was loaded into the sample cell, whereas 250 μM of PM15 and PM15Y was placed in the syringe. ITC titrations were performed with 20 injections of 2 µL of peptide into sample cells at 25 °C with a stirring speed of 750 rpm. ITC data were analyzed by using a single site binding model in MicroCal Origin 5.0 software to obtain the association constant (Ka) and enthalpy change (ΔH). Other binding parameters, namely, dissociation constant (Kd), Gibbs free energy (ΔG) and entropy change (TΔS), were determined indirectly from thermodynamics equations.

LptAm protein of E. coli = molecular target: T1, LptAm protein of E. coli (Escherichia coli, UniProt P0ADV1); experiment: ITC of peptide/LptAm binding; conditions: 50 mM sodium phosphate, 150 mM NaCl, pH 7.0, 25 °C
T1 construct: Expression and purification of LptAm protein (residues 28–159), with a six His-tag (SGRVEHHHHHH) at the C-terminus; made in house; host or cells: E. coli BL21
Experimental: as §2
Expression and purification of LptAm protein (residues 28–159), with a six His-tag (SGRVEHHHHHH) at the C-terminus, was carried out by using a previously established method. Briefly, plasmid DNA coding for LptAm gene was transformed into E. coli BL21 competent cells in LB agar plates containing 100 µg/mL of ampicillin. Protein production from expressing E. coli was induced by 1 mM isopropyl β-d-1-thiogalactopyranoside (IPTG) at an OD600 value of 0.6–0.8 at 18 °C for 18 h. The bacteria cells were centrifuged at 6000 rpm, 4 °C for 15 min and resuspended in a lysis buffer (100 mM HEPES, 500 mM NaCl, 10 mM imidazole, pH 8). Bacterial cells were lysed by sonication on ice at 25 Amp for 1 h, the lysate was centrifuged at 18,000 rpm, 4 °C for 30 min to remove cellular debris. The cell supernatant was applied through Ni-NTA (Qiagen, Germantown, TN, USA) beads thrice before washing it with increasing concentrations of imidazole. […]

bacteria = conditions: cited from earlier work; for antibacterial activity, in words: N-terminal deletion fragment of thanatin
From the text: Antimicrobial peptides (AMPs) are found in all life forms and constitute the first line of defense as a part of innate immunity in higher organisms, including humans. As a mode of action, a significant number of cationic AMPs disrupt membrane structures including the LPS–outer membrane of Gram-negative bacteria. Thanatin, a 21-residue antimicrobial peptide, was originally identified from the hemolymph of the spined soldier bug, or Podisus maculiventris. […] Further, to understand residue length-dependent antibacterial activity, here, we investigated a 15-residue N-terminal peptide fragment, or PM15 (PIIYCNRRTGKCQRM), of thanatin. We also examined two analog peptides, PM15Y and PM15A, to replace residue Pro. […] In this study, we have examined 15-residue thanatin-derived peptide, or PM15, and two analogs, PM15Y and PM15A. PM15 and analog peptides are able to exert antibacterial activity against Gram-negative and Gram ...

[3] = test system: LPS-outer membrane; LptA and LptD; conditions: cited from earlier work
From the text: (§3) Antimicrobial peptides (AMPs) are found in all life forms and constitute the first line of defense as a part of innate immunity in higher organisms, including humans. As a mode of action, a significant number of cationic AMPs disrupt membrane structures including the LPS–outer membrane of Gram-negative bacteria. Thanatin, a 21-residue antimicrobial peptide, was originally identified from the hemolymph of the spined soldier bug, or Podisus maculiventris. Recent studies have discovered and characterized thanatin orthologous AMPs from other speci ...

[4] = test system: bacterial load from model animals; conditions: ref [29],[30],[31]; cited from earlier work
From the text: as §3

[5] = molecular target: T2, LptAm, a monomeric functional (truncated) variant of LptA (E. coli, UniProt P0ADV1 28-159); experiment: ITC; 250 uM peptide in the syringe titrated into 25 uM LptAm in the cell; 50 mM sodium phosphate, 150 mM NaCl, pH 7.0, 25 °C; single site binding model; apparent Kd; conditions: both partners purified
T2 construct: LptA, periplasmic component of the LPS transport (Lpt) complex, E. coli, residues 28-159; no removal of the His tag is described; source: E. coli BL21, purified (Ni-NTA, size-exclusion chromatography)
T2 sequence (looked up): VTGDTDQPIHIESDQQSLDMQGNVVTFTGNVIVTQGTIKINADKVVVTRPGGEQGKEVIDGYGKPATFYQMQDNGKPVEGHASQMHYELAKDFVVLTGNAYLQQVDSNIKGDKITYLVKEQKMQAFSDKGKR

[6] = 1 mM peptide into 50 μM E. coli LPS (O111:B4), single site binding model
[7] = LPS, determined indirectly from thermodynamics equations

Molecule: CC[C@H](C)[C@H](NC(=O)[C@@H]1CCCN1)C(=O)N[C@H](C(=O)N[C@@H](Cc1ccc(O)cc1)C(=O)N[C@H]1CSSC[C@@H](C(=O)N[C@@H](CCC(N)=O)C(=O)N[C@@H](CCCNC(=N)N)C(=O)N[C@@H](CCSC)C(=O)O)NC(=O)[C@H](CCCCN)NC(=O)CNC(=O)[C@H]([C@@H](C)O)NC(=O)[C@H](CCCNC(=N)N)NC(=O)[C@H](CCCNC(=N)N)NC(=O)[C@H](CC(N)=O)NC1=O)[C@@H](C)CC [PM15]
- MIC [1]: >16 (>16) µM
- change in zeta potential of E. coli cells, in words (E. coli cells): increase in zeta potential in a dose-dependent manner
- Kd [2, 6]: 570 nM
- ΔH [2, 6]: -7.33 kcal/mol
- TΔS [2, 7]: 1.54 kcal/mol
- ΔG [2, 7]: -8.87 kcal/mol
- ΔH (LptAm protein of E. coli; 250 μM peptide into 25 μM LptAm, single site binding model): -2.93 kcal/mol
- LptAm binding, in words (LptAm protein of E. coli): bind to LptAm with high affinity
- TΔS (LptAm protein of E. coli; LptAm, determined indirectly from thermodynamics equations): 6.23 kcal/mol

Molecule: IIYCNRRTGKCQRM [14-residue (IIYCNRRTGKCQRM) fragment, 14-residue (…) fragment of thanatin]
- antibacterial activity, in words (bacteria; ref [23],[36]): largely inactive
- antibacterial activity, in words (bacteria; ref [23],[36], listed as 14-residue thanatin): inactive peptide

Molecule: VPIIYCNRRTGKCQRM [16-residue fragment, 16-residue fragment (…) of thanatin]
- antibacterial activity, in words (bacteria; ref [23],[26],[31],[36]): potent antibacterial activity
- antibacterial activity, in words (bacteria; ref [23],[31],[36]): demonstrated antibacterial activity

Molecule: thanatin: 21-residue antimicrobial peptide from the hemolymph of the spined soldier bug, Podisus maculiventris
- killing of Gram-negative bacteria, in words (bacteria; Enterobacteriaceae, including drug-resistant strains, ref [26],[28],[30],[31]): extremely potent in selectively killing Gram-negative bacteria
- antimicrobial activity, in words (bacteria; Gram-negative and Gram-positive bacteria and several strains of fungi, ref [23],[26],[27],[28],[29],[30]): broad spectrum of antimicrobial activity
- inhibition of outer-membrane biogenesis, in words ([3]; LptA and LptD, LPS transport, ref [33],[34],[35]): inhibits outer-membrane biogenesis by disrupting protein complexes (LptA and LptD)
- interaction with LPS-outer membrane, in words ([3]; ref [27],[28],[32]): interacted with the LPS–outer membrane, facilitating the permeabilizing of the OM barrier
- clearing bacterial load, in words [4]: promising activity profile

B1: PM15, 15-residue N-terminal truncated analog of thanatin (peptide)
peptide: PIIYCNRRTGKCQRM
notes: thanatin, Podisus maculiventris (spined soldier bug), the C-terminal 15 residues of the 21-residue peptide (P7-M21 of thanatin); also called 15-residue thanatin peptide; source: synthetic peptide, bought: GLBiochem (Shanghai, China)
- Kd [5]: 600 nM
- dH [5]: -2.93 kcal/mol

Molecule: YIIYCNRRTGKCQRM (disulfide 5-12) [PM15Y, P1 to Y substituted variant of PM15]
- dH [5]: -11.8 kcal/mol
